Data on three compounds can be found in BindingDB's records for doi:10.1016/s0960-894x(01)00003-8 (Shionogi, 2001).

Usually IC50 stands for the midpoint of a concentration-inhibition curve.

This test can be described thus: Concentration required to inhibit human Cytosolic phospholipase A2.
In turn, `CCCCC/C=C\C/C=C\C/C=C\C/C=C\CCCC(=O)C(F)(F)F` [Arachidonyltrifluoromethane] had an IC50 of 420 nM. The result for `O=C1N=C(O)SC1=Cc1ccc(C(=O)NC[C@@H]2C[C@@H](OCc3ccccc3-c3ccccc3)CN2C(=O)c2ccccc2C(=O)c2ccccc2)cc1` [N-[(2S,4R)-1-(2-Benzoyl-benzoyl)-4-(biphenyl-2-ylmethoxy)-pyrrolidin-2-ylmethyl]-4-[2,4-dioxo-thiazolidin-(5Z)-ylidenemethyl]-benzamide] reads 165 nM. For `O=C1N=C(O)SC1=Cc1ccc(C(=O)NC[C@@H]2C[C@@H](S(c3ccccc3)(c3ccccc3)c3ccccc3)CN2C(=O)c2ccccc2C(=O)c2ccc(F)cc2F)cc1` [N-[(2S,4R)-1-[2-(2,4-Difluoro-benzoyl)-benzoyl]-4-(triphenyl-lambda*4*-sulfanyl)-pyrrolidin-2-ylmethyl]-4-[2,4-dioxo-thiazolidin-(5Z)-ylidenemethyl]-benzamide], it took 4.2 nM to reach half-maximal inhibition (IC50).
